Measured values taken from ChEMBL document CHEMBL3243932, “Potential antiinflammatory compounds. 3. Compounds derived from acenaphthene and indan” (J Med Chem, 1979).
Activity calls are given as the source filed them. The calls are words filed in the database; no cut-off is given here.

Experiments:
Rattus norvegicus [1] = test: Antiinflammatory activity against rat adjuvant arthritis model assessed as reduction of swelling in non-injected foot at 100 mg/kg, po administered for 16 days; type: functional; conditions: 384 h
[2] = Acute toxicity in po dosed mouse; type: organism-based; conditions: in vivo
Rattus norvegicus [3] = test: Antiinflammatory activity in rat assessed as reduction of carrageenan-induced foot edema at 100 mg/kg, po administered as two doses; type: functional
Rattus norvegicus [4] = test: Antiinflammatory activity in rat assessed as reduction of carrageenan-induced foot edema at 50 mg/kg, po administered as two doses; type: functional
Rattus norvegicus [5] = test: Antiinflammatory activity against rat adjuvant arthritis model assessed as reduction of swelling in non-injected foot at 33 mg/kg, po administered for 16 days; type: functional; conditions: 384 h
Rattus norvegicus [6] = test: Antiinflammatory activity against rat adjuvant arthritis model assessed as reduction of swelling in non-injected foot at 50 mg/kg, po administered for 16 days; type: functional; conditions: 384 h
Rattus norvegicus [7] = test: Antiinflammatory activity against rat adjuvant arthritis model assessed as reduction of swelling in non-injected foot at 1 mg/kg, po administered for 16 days; type: functional; conditions: 384 h
Rattus norvegicus [8] = test: Antiinflammatory activity in po dosed rat assessed as reduction of carrageenan-induced foot edema administered as two doses; type: functional, organism-based
Rattus norvegicus [9] = test: Antiinflammatory activity in rat assessed as reduction of carrageenan-induced foot edema at 25 mg/kg, po administered as two doses; type: functional

Compound	inhibition in vivo at 100 mg/kg (Rattus norvegicus [1])	LD50 [2]	inhibition in vivo at 100 mg/kg (Rattus norvegicus [3])	also measured
O=C1CC(c2ccccc2)c2ccccc21 (configuration not stated)	36%	1600 mg/kg	48%	–
O=C(O)Cc1ccc2c(c1)C(=O)/C(=C/c1ccc(Cl)cc1)C2	43%	1600 mg/kg	0%	–
O=C(O)Cc1ccc2c(c1)C(=O)CC2C1CCCCC1 (configuration not stated)	–	1200 mg/kg	8%	–
O=C(O)Cc1ccc(C2CC(=O)c3ccccc32)cc1 (configuration not stated)	52%	1600 mg/kg	36%	–
CC1CC(=O)c2cc(-c3ccccc3)ccc21 (configuration not stated)	–	1600 mg/kg	7%	–
C[C@]12CCC(=O)C=C1CC[C@@H]1[C@@H]2[C@@H](O)C[C@@]2(C)[C@H]1CC[C@]2(O)C(=O)CO [HYDROCORTISONE]	–	–	–	inhibition in vivo at 50 mg/kg (Rattus norvegicus [4]): 51%
CCCCC1C(=O)N(c2ccccc2)N(c2ccccc2)C1=O [PHENYLBUTAZONE]	–	–	–	inhibition in vivo at 33 mg/kg (Rattus norvegicus [5]): 42%; inhibition in vivo at 50 mg/kg (Rattus norvegicus [4]): 30%; inhibition in vivo at 50 mg/kg (Rattus norvegicus [6]): 50%
COc1ccc2c(c1)c(CC(=O)O)c(C)n2C(=O)c1ccc(Cl)cc1 [INDOMETHACIN]	–	–	–	inhibition in vivo at 1 mg/kg (Rattus norvegicus [7]): 57%
O=C(O)Cc1ccc(C(CC(=O)O)c2ccccc2)cc1 (configuration not stated)	–	–	–	inhibition (Rattus norvegicus [8]): inactive
O=C(O)CCc1ccc(CC(=O)O)cc1	–	–	–	inhibition (Rattus norvegicus [8]): inactive
O=C(O)Cc1ccc2c(c1)C(=O)CC2	–	1600 mg/kg	0%	–
O=C(O)Cc1ccc2c3c(cccc13)C(c1ccccc1)C2 (configuration not stated)	0%	400 mg/kg	53%	–
O=C([O-])Cc1ccc2c(c1)CCC2C1CCCCC1.[Na+] (configuration not stated)	–	1200 mg/kg	28%	–
CC1CCc2cc(-c3ccccc3)ccc21 (configuration not stated)	–	1600 mg/kg	35%	inhibition in vivo at 50 mg/kg (Rattus norvegicus [6]): 32%
CC(C(=O)O)c1ccc2c3c(cccc13)C(c1ccccc1)C2 (configuration not stated)	–	1600 mg/kg	44%	inhibition in vivo at 50 mg/kg (Rattus norvegicus [6]): 50%
O=C(O)Cc1ccc2c(c1)C(=O)/C(=C/c1ccccc1)C2	25%	1600 mg/kg	26%	–
O=C(O)CC1CC(c2ccccc2)c2ccccc21 (configuration not stated)	–	1600 mg/kg	0%	–
O=C(O)CCC1CC(c2ccccc2)c2ccccc21 (configuration not stated)	–	300 mg/kg	–	inhibition in vivo at 25 mg/kg (Rattus norvegicus [9]): 0%
C/C=C/C(=O)c1ccc(-c2ccccc2)cc1	–	–	–	inhibition (Rattus norvegicus [8]): inactive
CC(C(=O)O)c1ccc2c(c1)C(=O)/C(=C/c1ccc(Cl)cc1)C2 (configuration not stated)	53%	–	–	–
